Each structure is given as a SMILES string. Structures can show the parent of a compound that is named as a salt.

The target in one data set is T1, P2X7 receptor (Homo sapiens, UniProt Q99572).
T1 construct: 200 μl of a suspension of THP-1 cells; endogenous in cells; host or cells: THP-1 cells
T1 sequence (Q99572 1-595): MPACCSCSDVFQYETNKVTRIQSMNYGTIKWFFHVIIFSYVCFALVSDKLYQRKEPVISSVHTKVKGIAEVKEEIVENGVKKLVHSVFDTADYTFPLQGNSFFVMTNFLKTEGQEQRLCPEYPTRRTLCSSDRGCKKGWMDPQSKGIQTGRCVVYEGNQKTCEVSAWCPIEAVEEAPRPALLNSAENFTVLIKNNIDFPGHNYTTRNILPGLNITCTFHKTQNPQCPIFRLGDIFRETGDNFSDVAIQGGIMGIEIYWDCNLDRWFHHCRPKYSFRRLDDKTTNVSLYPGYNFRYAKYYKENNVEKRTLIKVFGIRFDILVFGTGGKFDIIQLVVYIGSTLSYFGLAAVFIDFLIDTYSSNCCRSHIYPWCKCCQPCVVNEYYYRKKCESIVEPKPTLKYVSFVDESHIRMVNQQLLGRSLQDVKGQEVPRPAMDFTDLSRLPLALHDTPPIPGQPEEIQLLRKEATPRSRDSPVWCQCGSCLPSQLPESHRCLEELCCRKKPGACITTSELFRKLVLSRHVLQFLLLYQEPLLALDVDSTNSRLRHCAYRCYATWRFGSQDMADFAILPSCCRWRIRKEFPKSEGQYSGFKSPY
As to the kind of experiment: bbATP-induced ethidium bromide uptake (fluorescence) in THP-1 cells, P2X7 receptor antagonist activity. The class given is cell-based. Particulars: 10^-5M bbATP, 37° C. for one hour, read-out: pIC50 (negative logarithm of the concentration of test compound necessary to reduce the bbATP agonist activity by 50%) (converted). An excerpt:
Certain compounds such as benzoylbenzoyl adenosine triphosphate (bbATP) are known to be agonists of the P2X7 receptor, effecting the formation of pores in the plasma membrane (Drug Development Research (1996), 37(3), p.126). Consequently, when the receptor is activated using bbATP in the presence of ethidium bromide (a fluorescent DNA probe), an increase in the fluorescence of intracellular DNA-bound ethidium bromide is observed. The increase in fluorescence can be used as a measure of P2X7 receptor activation and therefore to quantify the effect of a compound on the P2X7 receptor.
In this manner, each of the title compounds of the Examples was tested for antagonist activity at the P2X7 receptor. Thus, the test was performed in 96-well flat bottomed microtitre plates, the wells being filled with 250 μl of test solution comprising 200 μl of a suspension of THP-1 cells (2.5×10^6 cells/ml) containing 10^−4M ethidium bromide, 25 μl of a high potassium buffer solution containing 10^−5M bbATP, and 25 μl of the high potassium buffer solution containing 3×10^−5M test compound. The plate was covered with a plastics sheet and incubated at 37° C. for one hour. The plate was then read in a Perkin-Elmer fluorescent plate reader, excitation 520 nm, emission 595 nm, slit widths: Ex 15 nm, Em 20 nm. […]
Turning to `CN(C)C[C@H](O)Cc1ccc(Cl)c(C(=O)NCC23CC4CC(CC(C4)C2)C3)c1` [Example 8, 2-Chloro-5-[(2R)-3-(dimethylamino)-2-hydroxypropyl]-N-(tricyclo[3.3.1.1^3,7]dec-1-ylmethyl)-benzamide, hydrochloride], the IC50 was 3.98 nM.
On to `CNC[C@@H](O)CCc1ccc(Cl)c(C(=O)NCC23CC4CC(CC(C4)C2)C3)c1.Cl` [Example 1, 2-Chloro-5-[(3S)-3-hydroxy-4-(methylamino)butyl]-N-(tricyclo[3.3.1.1^3,7]dec-1-ylmethyl)benzamide, hydrochloride], for which the IC50 was 10 nM.

Test system in the next data set: not given
Assay: not given
Conditions: not given
The term melting point denotes the temperature, or range, at which the solid turns liquid. Molecule `CCNC[C@@H](O)Cc1ccc(Cl)c(C(=O)NCC23CC4CC(CC(C4)C2)C3)c1` (as salt: hydrochloride) [Example 14, 2-Chloro-5-[(2S)-3-(ethylamino)-2-hydroxypropyl]-N-(tricyclo [3.3.1.1^3,7]dec-1-ylmethyl)-benzamide, hydrochloride salt] displayed a melting point of 214 °C.
Same read-out and setting: then `CCNC[C@H](O)Cc1ccc(Cl)c(C(=O)NCC23CC4CC(CC(C4)C2)C3)c1` (as salt: hydrochloride), with 218 °C.
On to `CNC[C@@H](O)Cc1ccc(Cl)c(C(=O)NCC23CC4CC(CC(C4)C2)C3)c1` (as salt: hydrochloride), for which the melting point is 196 °C.
On the same count and under the same terms, for `CC(C)NC[C@H](O)Cc1ccc(Cl)c(C(=O)NCC23CC4CC(CC(C4)C2)C3)c1` (as salt: hydrochloride) the value was 189 °C.
Molecule `O=C(NCC12CC3CC(CC(C3)C1)C2)c1cc(C[C@@H](O)CNCCCO)ccc1Cl` (as salt: hydrochloride) gave a melting point of 225 °C.
On the same count and under the same terms, then `CNC[C@@H](O)CCc1ccc(Cl)c(C(=O)NCC23CC4CC(CC(C4)C2)C3)c1.Cl` [Example 1, 2-Chloro-5-[(3S)-3-hydroxy-4-(methylamino)butyl]-N-(tricyclo[3.3.1.1^3,7]dec-1-ylmethyl)benzamide, hydrochloride], with > 200 °C (dec.).
